Where two headings read alike, the source gives them in different places.

One data set deals with Plasmodium falciparum. Put plainly: anti-malarial activity against Plasmodium falciparum. The following applies: read-out: IC50 anti-malarial activity. Type of data set: cell-based. The protocol: (§1) Assays comparing the antiplasmodial activities of the compounds of the invention were performed using the SYBR-Green method.^xlviii Briefly, the compounds were dissolved in DMSO to achieve a concentration of 10 mg/mL. Fifty microliters of RPMI-A were added to each well in a 96-well plate before 40 μL of RPMI-A and 10 μL of compound solution were added to the first well, the contents of the well were mixed, 50 μL were removed and added to the next well in the series and the process was repeated until the next-to-last well was reached. This produced a plate with a series of two-fold dilutions across it, except for the last well in the series, which contained RPMI-A alone. Fifty microliters of parasite culture (2% hematocrit, 2% parasitemia) were added to each well and the plates were then incubated at 37° C. in 95% N2, 3% CO2, and 2% O2 for 72 hrs.

Another data set has as its system Plasmodium vivax. Put plainly: anti-malarial activity against Plasmodium vivax. It is filed as cell-based. The following applies: range stated for the group of compounds.
Another data set concerns P. falciparum ItG. Put plainly: antiplasmodial activity, SYBR-Green method, P. falciparum ItG isolate. The following applies: Plasmodium falciparum, in vitro, FIG. 4, read-out: IC50 anti-plasmodial activity. It is filed as cell-based. Here is the method:
as §1
(§2) CHO cells (ATCC, Manassas, Va.) were grown in RPMI-1640 supplemented with 10% fetal calf serum (Sigma, St. Louis, Mo.), 25 mM HEPES and gentimicin (RPMI-10). Cells were seeded in 96 well plates and grown to 50% confluency in 100 μL of RPMI-10 per well prior to the addition of either DMSO alone, or a test compound dissolved in DMSO to a concentration of 10 mg/mL. […]

In another data set the test system is P. falciparum 3D7. Put plainly: antiplasmodial activity, SYBR-Green method, P. falciparum 3D7 isolate. It is filed as cell-based. The following applies: Plasmodium falciparum, in vitro, FIG. 4, read-out: IC50 anti-plasmodial activity. The protocol:
as §1, §2

Data set [1] is described as follows: CHO cell toxicity assay (MTT). It is filed as cell-based. The following applies: Chinese hamster, CHO cells; CHO cell line. The protocol:
CHO cells (ATCC, Manassas, Va.) were grown in RPMI-1640 supplemented with 10% fetal calf serum (Sigma, St. Louis, Mo.), 25 mM HEPES and gentimicin (RPMI-10). Cells were seeded in 96 well plates and grown to 50% confluency in 100 μL of RPMI-10 per well prior to the addition of either DMSO alone, or a test compound dissolved in DMSO to a concentration of 10 mg/mL. Compound gradients were prepared by adding 90 μL of RPMI-10 mixed with 10 μL of compound solution to the first well in the series, mixing, transferring 100 μL to next well and repeating until the next-to-last well was reached. After 48 hrs, the viability of the cells was determined by discarding the media in the wells and adding 100 μL of 10 mg/mL of 3-[4,5-dimethylthiazol-2-yl]-2,5-diphenyltetrazolium bromide (MTT, Sigma, St. Louis, Mo.) in RPMI-10, incubating the plates for an additional hour, and then removing the media and adding 100 μL of DMSO and reading the absorbance at 650 nm.^xlix The IC50 values of individual compounds were determined applying a non-linear regression analysis of the dose-response curve using the computer program SigmaPlot (Jandel Scientific).

Data set [2] can be described thus: toxicity to Vero cell line. The following applies: African green monkey, Vero cells. It is filed as cell-based.
A short description of data set [3]: toxicity to human fibroblast (HFF) cell line. Type of data set: cell-based. The following applies: human fibroblast (HFF) cells.
Data set [4] deals with human primary blood cells (PBLs). Put plainly: human primary blood cell assay (H-3 incorporation, Con A stimulated). It is filed as cell-based. The protocol: The following procedure was used to conduct human primary blood cell assays. Added 3 ml of PBS (OCI media facility) to 3 ml of serum depleted blood from normal, adult, human controls. Pipetted 6 ml Ficoll-Paque Plus (Amersham 17-1440-03) into a 15 ml centrifuge tube. Overlaid with PBS diluted blood. Centrifuged at 2500 rpm for 10 minutes at room temperature, no brake.
Removed and discarded upper (PBS) phase. Transferred cells at the PBS/Ficoll interface to a clean 15 ml centrifuge tube. Added 10 mL PBS. Then, centrifuged at 1250 rpm for 10 minutes at room temperature.
Discarded the supernatant and resuspended the cell pellet in Iscove's Modified Dulbecco's Medium (Gibco 12440 prepared by OCI Media facility) supplemented with 5.5×10^-5M 2ME (Fisher 03446-100) and 5% FBS (Hyclone SH-30397-03 Lot # KPG21604). Plated cells at 50,000 cells per well in 96 well flat bottom plates (Costar 3595). Added Concanavalin A (Pharmacia 17-0450-01) to a final concentration of 1.5 micro gm/ml. All conditions were set in triplicate.
Included untreated (Con A alone) controls. Cultured cells for 48 hours or 72 hours at 37° C. with 5% CO2 and 90% relative humidity. Added 0.5 uCi H-3 (Perkin Elmer NET027A) per well in 10 microL for the last 8 hours of the culture period. […]
Dried plates for 1 hour at 37° C. […] Data was collected by reading the radioactivity counts.

Data set [5] deals with P. burghei. Put plainly: mouse efficacy study against plasmodia. It is filed as in vivo, mice. The source says:
P. chabaudi chabaudi (Pcc) AS infection: They are two different species of mouse malaria that are used commonly in mice efficacy studies: P. chabaudi chabaudi AS and P. burghei. Pcc strain induces larger load of parasites and even some mouse strains die. If P. burghei strain is given to the mouse, they develop fewer parasites but become very sick. Pcc strain provides an opportunity in mice to observe if parasite numbers are reduced in the context of a reasonably healthy animal. Thus, Pcc strain was used in the efficacy model.
Blood-stage PCCAS was maintained in as described (Podoba J E and Stevenson, 1991)[2]. Infections in experimental animals were initiated by intraperitoneal injection of 1×10^6 P. chabaudi chabaudi AS-infected erythrocytes (PCCAS). Course of infection was monitored daily for 18 days by determining parasitemia on thin-blood smears stained with Diff Quik (American Scientific Products, Mississauga, ON). Compounds to be assayed were made up in RPMI 1640 at the concentration required to deliver the target dose in a total volume of 0.5 mL and were then filter sterilized. Compounds were stored at 4° C. prior to use. After infection the presence of parasites in the peripheral circulation was monitored daily until parasites were first observed. The mice were then injected daily for three consecutive days with either RPMI 1640 alone or compound dissolved in RPMI. The health of the animals was assessed daily and the parasitemia determined by examining blood films.
(§3) Efficacy studies in mice were performed using Ii to test the in vivo potential of this compound. Mice were infected with P. burghei, a mouse strain similar to the human malaria parasite P. falciparum. P. burghei strain is approximately 20 times less sensitive to Ii, so the dose in mice had to be adjusted accordingly. Parasitemia was monitored in mice after the drug was given at two different doses: 0.6 mg/mouse (n=3) and 6 mg/mouse (n=3). There was a control group of mice without any treatment with Ii.

Another data set concerns ODCase. Put plainly: ODCase inhibition (isothermal titration calorimetry enzymology). It is filed as biochemical. The protocol:
(a) Enzymology. ODCase from M. thermoautotrophicum (Mt) and compound Id were incubated at room temperature in the reaction buffer (50 mM Tris, 20 mM DTT, 40 mM NaCl, pH 7.5). The concentrations of the Id were 1×, 2.5×, 3.5× and 5× of the enzyme concentration, corresponding to 50, 125, 175 and 250 μM, respectively. The remaining enzyme activity in the enzyme-inhibitor reaction mixture was measured after 30 min, 2, 4, 8, 12, 24, 48 and 96 hours after the onset of incubation. Aliquots (1 μL) were removed from the reaction mixture and diluted to 2.5 mL with the assay buffer (50 mM Tris, 1 mM DTT, pH 7.5). […]
The inhibition of ODCase from P. falciparum (Pf) was assayed in a similar manner. […] The remaining activity of ODCase was measured at 37° C. for up to 48 hrs. […]
The Pf ODCase concentration in each of the samples (15, 30, and 45 min incubation times) was 60 nM. […] The remaining enzyme activities in these samples were measured by injecting 3 μL of 2.85 mM OMP. The enzyme activity at t=0 was measured by injecting OMP and 6-iodo-UMP simultaneously into the 60 nM enzyme solution in the ITC sample chamber. […] The control sample with 60 nM enzyme was incubated for 15-45 minutes at 37° C., and the enzyme activity was measured after the addition of 3 μL of 2.85 mM OMP. […]
Half-time of inactivation t1/2 was calculated from: t1/2=0.693/kinact (3)
For orientation: Isothermal titration calorimetry measures the heat released or taken up as one component is titrated into another.

In data set [6] the test system is P. burghei. Put plainly: sensitivity of P. burghei strain compared with P. falciparum. The following applies: P. burghei strain vs P. falciparum. The protocol:
as §3

Where [7] appears, read: range stated for the group of compounds.

As a reminder, the IC50 is the midpoint of a concentration-inhibition curve. In the case of `[N-]=[N+]=Nc1cc(=O)[nH]c(=O)n1[C@@H]1O[C@H](CO)[C@@H](O)[C@H]1O` [Id, 6-Azido uridine], the IC50 in the data set on Plasmodium falciparum (setting [7]) and in the data set on Plasmodium vivax was 20 to 2000 µM in each case.

As for `[N-]=[N+]=Nc1c(F)c(=O)[nH]c(=O)n1[C@@H]1O[C@H](CO)[C@@H](O)[C@H]1O` [Io, 5-fluoro-6-azido uridine], the concentration for half-maximal inhibition (IC50) in the data set with Plasmodium falciparum (setting [7]) and in the data set on Plasmodium vivax was 20 to 2000 µM each time.

As for `O=c1cc(I)n([C@@H]2O[C@H](COP(=O)(O)O)[C@@H](O)[C@H]2O)c(=O)[nH]1` [Ij, 6-Iodo uridine-5′-O-monophosphate], the IC50 in the data set on Plasmodium falciparum (setting [7]) and in the data set with Plasmodium vivax was 20 to 2000 µM in each case.

By CC50 is commonly meant the concentration at which the toxic effect on the cells reaches its halfway point. Consider `O=c1cc(I)n([C@@H]2O[C@H](CO)[C@@H](O)[C@H]2O)c(=O)[nH]1` [Ii, 6-Iodo-uridine], for which the IC50 in the data set on P. falciparum ItG was 4.4 ± 1.3 µM; in the data set with P. falciparum 3D7, 6.2 ± 0.7 µM; in data set [3] it was over 300 µM. Moreover, inhibition in data set [1] was half-maximal at 366 ± 45 µM (IC50 at 48 h). The CC50 in [2] is over 300 µM. Further, the “toxicity not observed up to” value in data set [4] is given as over 200 mM. In the data set on P. burghei [5] (mice infected with P. burghei, 0.6 and 6 mg/mouse, vs untreated controls, dose-dependent, FIG. 5), the parasitemia in mice result is recorded as “decreased parasitemia”. Further, the survival rate entry with P. burghei [5] (mice infected with P. burghei, treated vs controls, FIG. 6) was “longer survival time”. For the same compound, in the data set with P. burghei [5] (mouse efficacy study with multiple dosing, vs no drug, FIG. 7), the “survival, multiple dosing, higher doses” value is listed as “increased survival”. Moreover, the “type of ODCase inhibition” value in the data set with ODCase is reported as “covalent inhibitor”. For the same compound, the “times less sensitive than P. falciparum” value with P. burghei [6] is on record as “approximately 20 times”.

Consider `Nc1c(F)c(=O)[nH]c(=O)n1[C@@H]1O[C@H](CO)[C@@H](O)[C@H]1O` [In, 5-Fluoro-6-amino uridine], for which the IC50 in the data set on Plasmodium falciparum (setting [7]) and in the data set with Plasmodium vivax was 20 to 2000 µM each time.

Take `[N-]=[N+]=Nc1cc(=O)[nH]c(=O)n1[C@@H]1O[C@H](COP(=O)(O)O)[C@@H](O)[C@H]1O` [If, 6-Azido uridine-5′-O-monophosphate]: the IC50 in the data set with Plasmodium falciparum (setting [7]) and in the data set on Plasmodium vivax was 20 to 2000 µM throughout.

For the compound `N#Cc1cc(=O)[nH]c(=O)n1[C@@H]1O[C@H](CO)[C@@H](O)[C@H]1O` [Ia, 6-Cyanouridine], the IC50 with Plasmodium falciparum (setting [7]) and in the data set on Plasmodium vivax was 20 to 2000 µM throughout.

`Nc1cc(=O)[nH]c(=O)n1[C@@H]1O[C@H](COP(=O)(O)O)[C@@H](O)[C@H]1O` [Ie, 6-Amino uridine-5′-O-monophosphate]: the IC50 with Plasmodium falciparum (setting [7]) and in the data set with Plasmodium vivax was 20 to 2000 µM throughout.

In the case of `N#Cc1cc(=O)[nH]c(=O)n1[C@@H]1O[C@H](COP(=O)(O)O)[C@@H](O)[C@H]1O` [Ib, 6-Cyanouridine-5′-monophosphate], the IC50 in the data set on Plasmodium falciparum and in the data set with Plasmodium vivax was 20 to 2000 µM in each case.

Turning to `COC(=O)c1cc(=O)[nH]c(=O)n1[C@@H]1O[C@H](CO)[C@@H](O)[C@H]1O` [Compound It, 6-Methoxycarbonyl uridine], the IC50 in the data set with Plasmodium falciparum (setting [7]) and in the data set on Plasmodium vivax was 20 to 2000 µM each time.

Regarding `O=c1[nH]c(=O)n([C@@H]2O[C@H](CO)[C@@H](O)[C@H]2O)c(I)c1F` [Ip, 5-fluoro-6-iodo uridine], the IC50 in the data set on Plasmodium falciparum (setting [7]) and with Plasmodium vivax was 20 to 2000 µM each time.

For the compound `Nc1cc(=O)[nH]c(=O)n1[C@@H]1O[C@H](CO)[C@@H](O)[C@H]1O` [Compound Ic, 6-Amino uridine], the IC50 in the data set on Plasmodium falciparum (setting [7]) and in the data set on Plasmodium vivax was 20 to 2000 µM throughout.
